Test results from ChEMBL document CHEMBL1201862, “PubChem BioAssay data set” (2004).
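Tested at 5 concentrations; 48 h exposure; 96-well plates; endpoints linearly interpolated, else capped at highest concentration. GI50 = concentration required for 50% inhibition of growth.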 The source made the active and inactive calls. No stated cut-off is given here; in the data, active = GI50 up to about 1.1 µM and inactive = higher.

How the values were obtained:
Assay in all cases: growth of human tumour cells (NCI), 48 h
M14 = test system: M14
NCI-H23 = test system: NCI-H23
SK-MEL-28 = test system: SK-MEL-28
MDA-MB-231 = test system: MDA-MB-231
HOP-92 = test system: HOP-92
RXF 393 = test system: RXF 393
HT-29 = test system: HT-29
BT-549 = test system: BT-549
EKVX = test system: EKVX
NCI-H460 = test system: NCI-H460
786-0 = test system: 786-0
MDA-N = test system: MDA-N
OVCAR-5 = test system: OVCAR-5
SF-268 = test system: SF-268
HOP-62 = test system: HOP-62
TK-10 = test system: TK-10
SNB-19 = test system: SNB-19
NCI-H522 = test system: NCI-H522
SK-MEL-5 = test system: SK-MEL-5
A549 = test system: A549
MDA-MB-435 = test system: MDA-MB-435
T47D = test system: T47D
OVCAR-4 = test system: OVCAR-4
HCC 2998 = test system: HCC 2998
SW-620 = test system: SW-620
ACHN = test system: ACHN
SF-539 = test system: SF-539
CCRF-CEM = test system: CCRF-CEM
SK-MEL-2 = test system: SK-MEL-2
Hs-578T = test system: Hs-578T
HCT-15 = test system: HCT-15
A498 = test system: A498
OVCAR-8 = test system: OVCAR-8
SR = test system: SR
DU-145 = test system: DU-145
OVCAR-3 = test system: OVCAR-3
KM12 = test system: KM12
K562 = test system: K562
NCI/ADR-RES = test system: NCI/ADR-RES
MOLT-4 = test system: MOLT-4
NCI-H226 = test system: NCI-H226
UACC-257 = test system: UACC-257
SNB-75 = test system: SNB-75
SN12C = test system: SN12C
COLO 205 = test system: COLO 205
Malme-3M = test system: Malme-3M
PC-3 = test system: PC-3
HL-60 = test system: HL-60
HCT-116 = test system: HCT-116
UACC-62 = test system: UACC-62
CAKI-1 = test system: CAKI-1
SF-295 = test system: SF-295
UO-31 = test system: UO-31
SK-OV-3 = test system: SK-OV-3
MCF7 = test system: MCF7
U-251 = test system: U-251
LOX IMVI = test system: LOX IMVI
RPMI-8226 = test system: RPMI-8226
IGROV-1 = test system: IGROV-1

O=C(c1cccs1)N(Cc1cccnc1)C(=S)N(Cc1cccnc1)C(=O)c1cccs1
GI50 (M14): 91.2 µM (inactive) | GI50 (NCI-H23): > 100 µM (inactive) | GI50 (SK-MEL-28): > 100 µM (inactive) | GI50 (MDA-MB-231): > 100 µM (inactive) | GI50 (HOP-92): > 100 µM (inactive) | GI50 (RXF 393): > 100 µM (inactive) | GI50 (HT-29): > 100 µM (inactive) | GI50 (BT-549): > 100 µM (inactive) | GI50 (EKVX): 44.1 µM (inactive) | GI50 (NCI-H460): > 100 µM (inactive) | GI50 (786-0): 3.56 µM (inactive) | GI50 (MDA-N): 33.4 µM (inactive) | GI50 (OVCAR-5): > 100 µM (inactive) | GI50 (SF-268): 35.6 µM (inactive) | GI50 (HOP-62): 35.6 µM (inactive) | GI50 (TK-10): 34 µM (inactive) | GI50 (SNB-19): 35.5 µM (inactive) | GI50 (NCI-H522): 36.5 µM (inactive) | GI50 (SK-MEL-5): > 100 µM (inactive) | GI50 (A549): > 100 µM (inactive) | GI50 (MDA-MB-435): > 100 µM (inactive) | GI50 (T47D): > 100 µM (inactive) | GI50 (OVCAR-4): > 100 µM (inactive) | GI50 (HCC 2998): > 100 µM (inactive) | GI50 (SW-620): > 100 µM (inactive) | GI50 (ACHN): > 100 µM (inactive) | GI50 (SF-539): 29.9 µM (inactive) | GI50 (CCRF-CEM): > 100 µM (inactive) | GI50 (SK-MEL-2): 26.2 µM (inactive) | GI50 (Hs-578T): 53.2 µM (inactive) | GI50 (HCT-15): > 100 µM | GI50 (A498): 32.3 µM (inactive) | GI50 (OVCAR-8): 50.4 µM (inactive) | GI50 (SR): 7.82 µM (inactive) | GI50 (DU-145): > 100 µM (inactive) | GI50 (OVCAR-3): 53.7 µM (inactive) | GI50 (KM12): 24.4 µM (inactive) | GI50 (K562): 26.4 µM (inactive) | GI50 (NCI/ADR-RES): > 100 µM (inactive) | GI50 (MOLT-4): > 100 µM (inactive) | GI50 (NCI-H226): > 100 µM (inactive) | GI50 (UACC-257): > 100 µM (inactive) | GI50 (SNB-75): 37.8 µM (inactive) | GI50 (SN12C): 32.6 µM (inactive) | GI50 (COLO 205): > 100 µM (inactive) | GI50 (Malme-3M): > 100 µM (inactive) | GI50 (PC-3): 41.8 µM (inactive) | GI50 (HL-60): > 100 µM (inactive) | GI50 (HCT-116): 45.8 µM (inactive) | GI50 (UACC-62): 60.7 µM (inactive) | GI50 (CAKI-1): > 100 µM (inactive) | GI50 (SF-295): 32.2 µM (inactive) | GI50 (UO-31): > 100 µM (inactive) | GI50 (SK-OV-3): 37.8 µM (inactive) | GI50 (MCF7): 4.85 µM (inactive) | GI50 (U-251): 32.7 µM (inactive) | GI50 (LOX IMVI): 5.5 µM (inactive)

CCN(CC)c1ccc(/C=C2\CCc3ccc([N+](=O)[O-])cc3C2=O)cc1
GI50 (M14): 3.54 µM (inactive) | GI50 (NCI-H23): 7.62 µM (inactive) | GI50 (SK-MEL-28): 3.46 µM (inactive) | GI50 (MDA-MB-231): 2.61 µM (inactive) | GI50 (HOP-92): > 100 µM (inactive) | GI50 (RXF 393): 2.99 µM (inactive) | GI50 (HT-29): 0.256 µM (active) | GI50 (BT-549): > 100 µM (inactive) | GI50 (EKVX): 5.27 µM (inactive) | GI50 (NCI-H460): 3.84 µM (inactive) | GI50 (786-0): 2.84 µM (inactive) | GI50 (MDA-N): 0.17 µM (active) | GI50 (OVCAR-5): > 100 µM (inactive) | GI50 (SF-268): 14.4 µM (inactive) | GI50 (HOP-62): 0.471 µM (active) | GI50 (TK-10): 2.86 µM (inactive) | GI50 (SNB-19): 1.42 µM (inactive) | GI50 (NCI-H522): 0.912 µM (active) | GI50 (SK-MEL-5): 1.71 µM (inactive) | GI50 (A549): 4.58 µM (inactive) | GI50 (RPMI-8226): 0.391 µM (active) | GI50 (MDA-MB-435): 0.169 µM (active) | GI50 (T47D): 4.55 µM (inactive) | GI50 (OVCAR-4): > 100 µM (inactive) | GI50 (HCC 2998): 10.1 µM (inactive) | GI50 (SW-620): 0.297 µM (active) | GI50 (ACHN): 8.85 µM (inactive) | GI50 (SF-539): 2.25 µM (inactive) | GI50 (CCRF-CEM): 0.217 µM (active) | GI50 (Hs-578T): 1.26 µM (inactive) | GI50 (HCT-15): 0.64 µM | GI50 (A498): 2.56 µM (inactive) | GI50 (OVCAR-8): 3.73 µM (inactive) | GI50 (SR): 0.324 µM (active) | GI50 (DU-145): 6.01 µM (inactive) | GI50 (IGROV-1): 7.06 µM (inactive) | GI50 (OVCAR-3): 1.93 µM (inactive) | GI50 (KM12): 0.582 µM (active) | GI50 (K562): 0.0755 µM (active) | GI50 (NCI/ADR-RES): 1.03 µM (active) | GI50 (MOLT-4): 0.488 µM (active) | GI50 (NCI-H226): > 100 µM (inactive) | GI50 (SNB-75): 2.52 µM (inactive) | GI50 (SN12C): 2.99 µM (inactive) | GI50 (COLO 205): 4.01 µM (inactive) | GI50 (Malme-3M): 2.52 µM (inactive) | GI50 (PC-3): 1.97 µM (inactive) | GI50 (HL-60): 0.249 µM (active) | GI50 (HCT-116): 0.199 µM (active) | GI50 (UACC-62): 1.29 µM (inactive) | GI50 (CAKI-1): > 26.6 µM (inactive) | GI50 (SF-295): 1.4 µM (inactive) | GI50 (UO-31): 7.46 µM (inactive) | GI50 (SK-OV-3): 4.54 µM (inactive) | GI50 (MCF7): 0.535 µM (active) | GI50 (U-251): 1.7 µM (inactive) | GI50 (LOX IMVI): 0.409 µM (active)
